One molecule from ChEMBL document CHEMBL4145686, “Discovery of a Potent and Selective Steroidal Glucocorticoid Receptor Antagonist (ORIC-101)” (J Med Chem, 2018) can be followed below.

Common to all, as to type: cell-based
The target of one series is T1, Glucocorticoid receptor (Homo sapiens, UniProt P04150).
T1 sequence (P04150 whole entry): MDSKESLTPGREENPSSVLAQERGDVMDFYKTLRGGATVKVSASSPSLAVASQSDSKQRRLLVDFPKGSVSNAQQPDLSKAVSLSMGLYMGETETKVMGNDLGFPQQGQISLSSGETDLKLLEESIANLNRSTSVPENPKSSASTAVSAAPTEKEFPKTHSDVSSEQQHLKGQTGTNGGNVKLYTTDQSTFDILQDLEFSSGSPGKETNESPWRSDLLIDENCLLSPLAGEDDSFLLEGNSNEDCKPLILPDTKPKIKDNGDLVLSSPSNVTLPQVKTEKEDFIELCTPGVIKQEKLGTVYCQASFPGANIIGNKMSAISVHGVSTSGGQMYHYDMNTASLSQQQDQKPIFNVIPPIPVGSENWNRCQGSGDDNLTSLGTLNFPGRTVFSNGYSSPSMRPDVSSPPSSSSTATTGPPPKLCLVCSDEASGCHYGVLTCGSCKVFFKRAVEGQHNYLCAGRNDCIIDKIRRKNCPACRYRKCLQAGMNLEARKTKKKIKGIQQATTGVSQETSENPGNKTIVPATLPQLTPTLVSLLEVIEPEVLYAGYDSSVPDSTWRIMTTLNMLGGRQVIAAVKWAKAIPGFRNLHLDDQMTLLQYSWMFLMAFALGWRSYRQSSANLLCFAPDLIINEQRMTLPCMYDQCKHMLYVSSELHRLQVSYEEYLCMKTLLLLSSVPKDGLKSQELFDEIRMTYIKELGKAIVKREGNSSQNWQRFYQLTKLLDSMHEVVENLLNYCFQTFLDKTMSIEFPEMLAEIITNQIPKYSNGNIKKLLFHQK
The experiment in a line: Antagonist activity at GR in human PBMC assessed as reduction in dexamethasone-induced GILZ gene expression incubated for 6 hrs by RT-qPCR method. On the technique in general: Real-time PCR tracks product formation cycle by cycle.

The next series addresses T2, Progesterone receptor (Homo sapiens, UniProt P06401).
T2 sequence (P06401 whole entry): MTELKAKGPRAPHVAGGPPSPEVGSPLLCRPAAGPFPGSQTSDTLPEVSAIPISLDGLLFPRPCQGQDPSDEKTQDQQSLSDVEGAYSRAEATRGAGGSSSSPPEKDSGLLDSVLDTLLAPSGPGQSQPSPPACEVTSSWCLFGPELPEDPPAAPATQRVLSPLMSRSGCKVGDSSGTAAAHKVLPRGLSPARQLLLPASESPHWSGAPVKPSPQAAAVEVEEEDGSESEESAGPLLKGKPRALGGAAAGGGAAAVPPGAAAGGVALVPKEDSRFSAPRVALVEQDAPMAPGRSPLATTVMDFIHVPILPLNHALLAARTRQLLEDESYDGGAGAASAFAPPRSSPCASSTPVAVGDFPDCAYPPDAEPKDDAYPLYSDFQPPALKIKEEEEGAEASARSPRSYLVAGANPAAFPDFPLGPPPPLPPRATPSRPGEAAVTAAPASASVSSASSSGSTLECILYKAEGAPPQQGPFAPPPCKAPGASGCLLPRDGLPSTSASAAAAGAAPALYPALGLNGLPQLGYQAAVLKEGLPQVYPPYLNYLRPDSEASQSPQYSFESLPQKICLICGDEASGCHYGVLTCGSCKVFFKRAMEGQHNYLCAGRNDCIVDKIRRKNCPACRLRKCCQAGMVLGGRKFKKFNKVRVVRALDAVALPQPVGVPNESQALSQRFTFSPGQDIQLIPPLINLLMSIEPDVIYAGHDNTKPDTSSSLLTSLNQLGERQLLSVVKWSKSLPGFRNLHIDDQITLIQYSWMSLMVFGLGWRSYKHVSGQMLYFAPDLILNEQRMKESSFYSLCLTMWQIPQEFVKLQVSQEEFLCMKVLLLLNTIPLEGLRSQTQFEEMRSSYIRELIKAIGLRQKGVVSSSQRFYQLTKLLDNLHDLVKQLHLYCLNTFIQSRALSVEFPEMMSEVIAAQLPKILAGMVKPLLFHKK
Put plainly: Agonist activity at human PR expressed in CHO-K1 cells incubated for 20 hrs by luciferase reporter gene assay. The settings on record: cho-k1, 20 h. A general note: In a reporter assay the amount or activity of a reporter protein is the signal.

A further series concerns the target T3, Androgen receptor (Homo sapiens, UniProt P10275).
T3 sequence (P10275 whole entry): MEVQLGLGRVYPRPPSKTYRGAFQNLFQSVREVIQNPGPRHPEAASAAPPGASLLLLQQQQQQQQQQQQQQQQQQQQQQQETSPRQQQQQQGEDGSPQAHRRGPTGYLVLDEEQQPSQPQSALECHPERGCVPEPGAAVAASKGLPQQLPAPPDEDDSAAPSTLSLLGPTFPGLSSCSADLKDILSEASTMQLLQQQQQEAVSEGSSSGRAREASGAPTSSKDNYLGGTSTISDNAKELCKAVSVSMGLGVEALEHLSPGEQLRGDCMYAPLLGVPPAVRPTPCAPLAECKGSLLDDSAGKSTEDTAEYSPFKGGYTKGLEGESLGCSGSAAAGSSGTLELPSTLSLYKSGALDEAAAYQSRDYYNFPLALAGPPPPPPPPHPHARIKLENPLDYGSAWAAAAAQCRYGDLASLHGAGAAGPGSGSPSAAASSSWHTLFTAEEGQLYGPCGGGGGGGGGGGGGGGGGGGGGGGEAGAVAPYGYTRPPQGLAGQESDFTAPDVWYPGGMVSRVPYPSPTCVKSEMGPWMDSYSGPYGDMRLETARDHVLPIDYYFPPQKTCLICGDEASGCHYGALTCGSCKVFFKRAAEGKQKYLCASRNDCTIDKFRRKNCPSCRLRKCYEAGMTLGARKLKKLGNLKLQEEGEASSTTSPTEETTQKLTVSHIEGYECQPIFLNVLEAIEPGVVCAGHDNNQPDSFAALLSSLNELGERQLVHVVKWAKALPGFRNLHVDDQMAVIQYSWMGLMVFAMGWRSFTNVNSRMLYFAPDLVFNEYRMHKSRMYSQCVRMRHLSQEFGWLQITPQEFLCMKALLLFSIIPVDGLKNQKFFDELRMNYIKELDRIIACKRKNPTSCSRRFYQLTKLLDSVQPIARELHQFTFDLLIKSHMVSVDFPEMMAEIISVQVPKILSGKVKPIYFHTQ
Put plainly: Agonist activity at AR in human LNAR cells assessed as increase in TMPRSS2 gene expression at 100 nM incubated for 24 hrs by RT-qPCR method. The settings on record: 0.1 µM.

In general, IC50 refers to the concentration at which inhibition is half-maximal. Turning to `CC(C)N(C)c1ccc([C@H]2C[C@@]3(C)[C@@H](CC[C@@]3(O)C#CC(C)(C)C)[C@@H]3CCC4=CC(=O)CC[C@@H]4[C@H]32)cc1`, at Glucocorticoid receptor, the IC50 amounted to 24.9 nM. Further, the Activity entry on Progesterone receptor and on Androgen receptor was “Not Active” in each case.
